Like-named read-outs stand apart in the source and are kept apart here.
Assays:
[1] = system: NF-κB pathway, THP1-Dual™ cells; assay: STING reporter assay in THP1-Dual cells, NF-κB pathway (SEAP, QUANTI-Blue); format: cell-based, human; conditions: THP1-Dual cells, 10% human plasma, 20 hours, SEAP, 100% activation = 100 μM cGAMP, read-out: NFkB (EC50 μM)
Text: (§1) THP1-Dual™ cells were derived from the human THP-1 monocyte cell line by stable integration of two inducible reporter constructs. To this end, THP1-Dual™ cells allow the simultaneous study of the NF-κB pathway, by monitoring the activity of SEAP, and the IRF pathway by assessing the activity of a secreted luciferase (Lucia). Both reporter proteins are readily measurable in the cell culture supernatant when using QUANTI-Blue™, a SEAP detection reagent, and QUANTI-Luc™, a luciferase detection reagent.
(§2) THP1-Dual™ cells induce the activation of NF-κB in response to STING agonists. They also trigger the IRF pathway upon stimulation with STING agonists, such as cGAMP. Here, the THP-1-Dual cells were used to assess STING specific binders for function on the cellular level.
(§3) Serial dilutions of compounds in DMSO were added to low volume 384 well plates at 100 nl/well using an ECHO acoustic dispenser (Labcyte, model 550) to achieve final starting concentration of 100 μM in cell suspension. […] One column of the plate was reserved for treatment with cGAMP at 100 μM for 100% activation calculation and one column for no treatment (DMSO only) for baseline activation. Plates were then incubated in 37° C. incubator at 5% CO2 for 20 hours.
(§4) Plates were read on the Envision (Perkin Elmer) at 620 nm wavelength (OD620). In the luciferase assay, 5 μl of Quantiluc (Invivogen, Rep-qlc2) is added to white 384 well plates seeded with THP1 cells and read at 5 minutes on the Envision (Perkin Elmer) using a luminescence protocol (RLU). 100% activation was determined by value (RLU) of THP-1 Dual STING cells stimulated with 100 μM cGAMP (Invivogen, cat #TLRL-NACGA23-5).

[2] = system: IRF pathway, THP1-Dual™ cells; assay: STING reporter assay in THP1-Dual cells, IRF pathway (Lucia luciferase, QUANTI-Luc); format: cell-based, human; conditions: THP1-Dual cells, 10% human plasma, 20 hours, Lucia luciferase, 100% activation = 100 μM cGAMP, read-out: IRF (EC50 μM)
Text: as §1, §2, §3, §4

Row | Structure (SMILES) | EC50 ([1]; Homo sapiens, THP1-Dual, 20 h) [µM] | EC50 ([2]; Homo sapiens, THP1-Dual, 20 h) [µM] | EC50 [1] [µM] | EC50 [2] [µM]
1 | COC(=O)c1cc(F)cc2cc(CNC(=O)c3cnc4cccnn34)oc12 [EXAMPLE 41, Methyl 5-fluoro-2-((imidazo[1,2-b]pyridazine-3-carboxamido)methyl)benzofuran-7-carboxylate] | 1.3 | > 33 |  | 
2 | CC(OC(=O)c1cc(Cl)cc2cc(CNC(=O)c3cnn4cccnc34)oc12)C(F)(F)F (single isomer, unassigned) [EXAMPLE 330, 1,1,1-Trifluoropropan-2-yl 5-chloro-2-((pyrazolo[1,5-a]pyrimidine-3-carboxamido)methyl)benzofuran-7-carboxylate] |  |  | 5.5 | 4.7
3 | COC(=O)c1cc(Cl)cc2cc(CNC(=O)c3cncc(Br)n3)oc12 [Example 62, Methyl 2-((6-bromopyrazine-2-carboxamido)methyl)-5-chlorobenzofuran-7-carboxylate] | 46 | 42 |  | 
4 | COC(=O)c1cccc2cc(CNC(=O)c3cncnc3)oc12 [EXAMPLE 15, Methyl 2-((pyrimidine-5-carboxamido)methyl)benzofuran-7-carboxylate] | 39 | 44 |  | 
5 | O=C(OCc1cccc(CO)c1)c1cc(Cl)cc2cc(CNC(=O)c3cnn4cccnc34)oc12 [EXAMPLE 252, 3-(Hydroxymethyl)benzyl 5-chloro-2-((pyrazolo[1,5-a]pyrimidine-3-carboxamido)methyl)benzofuran-7-carboxylate] | 5.4 | 6.4 |  | 
6 | COC(OC(=O)c1cc(F)cc2cc(CNC(=O)c3cnn4cccnc34)oc12)C(F)(F)F (single isomer, unassigned) [EXAMPLE 319, 2,2,2-Trifluoro-1-methoxyethyl 5-fluoro-2-((pyrazolo[1,5-a]pyrimidine-3-carboxamido)methyl)benzofuran-7-carboxylate] | 2.5 | 2.4 |  | 
7 | COc1ccn2ncc(C(=O)NCc3cc4cc(Cl)cc(C(=O)O)c4o3)c2n1 [EXAMPLE 139, 5-Chloro-2-((5-methoxypyrazolo[1,5-a]pyrimidine-3-carboxamido)methyl)benzofuran-7-carboxylic acid] | > 100 | 90 |  | 
8 | CC(NC(=O)c1cnn2cccnc12)c1cc2cc(F)cc(C(=O)O[C@@H](C)C(F)(F)F)c2o1 (stereo partly drawn) [EXAMPLE 305, (S)-1,1,1-Trifluoropropan-2-yl 5-fluoro-2-(1-(pyrazolo[1,5-a]pyrimidine-3-carboxamido)ethyl)benzofuran-7-carboxylate] | 3.9 | 5 |  | 
9 | O=C(OCC(F)(F)C(F)(F)CO)c1cc(Cl)cc2cc(CNC(=O)c3cnn4cccnc34)oc12 [EXAMPLE 251, 2,2,3,3-Tetrafluoro-4-hydroxybutyl 5-chloro-2-((pyrazolo[1,5-a]pyrimidine-3-carboxamido)methyl)benzofuran-7-carboxylate] | 1 | 0.93 |  | 
10 | O=C(OC(CF)CF)c1cc(F)cc2cc(CNC(=O)c3cnn4cccnc34)oc12 [EXAMPLE 237, 1,3-Difluoropropan-2-yl 5-fluoro-2-((pyrazolo[1,5-a]pyrimidine-3-carboxamido)methyl)benzofuran-7-carboxylate] | 1.2 | 1.2 |  | 
11 | N#Cc1cc(C(=O)OCC(F)(F)F)c2oc(CNC(=O)c3cnn4cccnc34)cc2c1 [EXAMPLE 282, 2,2,2-Trifluoroethyl 5-cyano-2-((pyrazolo[1,5-a]pyrimidine-3-carboxamido)methyl)benzofuran-7-carboxylate] | 12 | 12 |  | 
12 | O=C(OC1CNC1)c1cc(Cl)cc2cc(CNC(=O)c3cnn4cccnc34)oc12 [EXAMPLE 248, Azetidin-3-yl 5-chloro-2-((pyrazolo[1,5-a]pyrimidine-3-carboxamido)methyl)benzofuran-7-carboxylate] | 98 | 73 |  | 
13 | O=C(OC1CC(c2ccc(F)cc2)C1)c1cc(Cl)cc2cc(CNC(=O)c3cnn4cccnc34)oc12 (single isomer, unassigned) [EXAMPLE 333, 3-(4-Fluorophenyl)cyclobutyl 5-chloro-2-((pyrazolo[1,5-a]pyrimidine-3-carboxamido)methyl)benzofuran-7-carboxylate] | 12 | 11 |  | 
14 | CCOC(OC(=O)c1cc(F)cc2cc(CNC(=O)c3cnn4cccnc34)oc12)C(F)F (single isomer, unassigned) [EXAMPLE 324, 1-Ethoxy-2,2-difluoroethyl 5-fluoro-2-((pyrazolo[1,5-a]pyrimidine-3-carboxamido)methyl)benzofuran-7-carboxylate] |  |  | 1.7 | 1.5

The remaining lines, values ahead:

Row | EC50 ([1]; Homo sapiens, THP1-Dual, 20 h) [µM] | EC50 ([2]; Homo sapiens, THP1-Dual, 20 h) [µM] | EC50 [1] [µM] | EC50 [2] [µM] | Structure (SMILES)
15 |  |  | 3.9 | 5.6 | COC(OC(=O)c1cc(C#N)cc2cc(CNC(=O)c3cnn4cccnc34)oc12)C(F)(F)F (single isomer, unassigned) [EXAMPLE 348, 2,2,2-Trifluoro-1-methoxyethyl 5-cyano-2-((pyrazolo[1,5-a]pyrimidine-3-carboxamido)methyl)benzofuran-7-carboxylate]
16 | 32 | 20 |  |  | CCCn1cncc(C(=O)NCc2cc3cc(Cl)cc(C(=O)OC)c3o2)c1=O [Example 67, Methyl 5-chloro-2-((1-propyl-6-oxo-1,6-dihydropyrimidine-5-carboxamido)methyl)benzofuran-7-carboxylate]
17 | 6.5 | 6.1 |  |  | O=C(OCC(F)(F)F)c1cc(F)cc2cc(CN3CCc4ccncc4C3=O)oc12 [EXAMPLE 228, 2,2,2-Trifluoroethyl 5-fluoro-2-((1-oxo-3,4-dihydro-2,7-naphthyridin-2(1H)-yl)methyl)benzofuran-7-carboxylate]
18 |  |  | 2.6 | 2.4 | COC(=O)c1cc(Cl)cc2cc(CNC(=O)c3cncc(C)n3)oc12 [Example 59, Methyl 5-chloro-2-((6-methylpyrazine-2-carboxamido)methyl) benzofuran-7-carboxylate]
19 | 0.28 | 0.4 |  |  | COC(=O)c1cc(C)cc2c(Br)c(CNC(=O)c3cnn4cccnc34)oc12 [EXAMPLE 121, Methyl 3-bromo-5-methyl-2-((pyrazolo[1,5-a]pyrimidine-3-carboxamido)methyl)benzofuran-7-carboxylate]
20 | 9.3 | 8.2 |  |  | O=C(OCC(F)F)c1cccc2cc(CN3CCc4ccncc4C3=O)oc12 [EXAMPLE 214, 2,2-Difluoroethyl 2-((1-oxo-3,4-dihydro-2,7-naphthyridin-2(1H)-yl)methyl)benzofuran-7-carboxylate]
21 | 0.83 | 0.8 |  |  | Cc1cc(C(=O)OC(CF)CF)c2oc(CNC(=O)c3cnn4cccnc34)cc2c1 [EXAMPLE 274, 1,3-Difluoropropan-2-yl 5-methyl-2-((pyrazolo[1,5-a]pyrimidine-3-carboxamido)methyl)-benzofuran-7-carboxylate]
22 | 1.9 | 1.9 |  |  | CSC(=O)c1cc(Cl)cc2cc([C@H](C)NC(=O)c3cnn4cccnc34)oc12 [EXAMPLE 401]
23 | 3.9 | 3.9 |  |  | O=C(NCc1cc2cc(Cl)cc(C(=O)OCC(F)(F)F)c2o1)c1cnccn1 [EXAMPLE 373, 2,2,2-Trifluoroethyl 5-chloro-2-((pyrazine-2-carboxamido)methyl)benzofuran-7-carboxylate]
24 | 4.1 | 3.6 |  |  | COC(=O)c1cc(F)cc2cc(CN3CCc4ccncc4C3=O)oc12 [EXAMPLE 36, Methyl 5-fluoro-2-((1-oxo-3,4-dihydro-2,7-naphthyridin-2(1H)-yl)methyl)benzofuran-7-carboxylate]

From patent US12673954B2 (BRISTOL-MYERS SQUIBB COMPANY, priority 2021, dated 2026)
